Test results as given in ChEMBL document CHEMBL1201862, “PubChem BioAssay data set” (2004).
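Cells were grown in 96-well plates and exposed to each compound for 48 hours at five concentrations; endpoints were interpolated linearly between bracketing concentrations, or set to the highest concentration if not reached. The concentration for 50% growth inhibition is given as GI50.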 Activity calls are given as the source filed them. No stated cut-off is given here; in the data, active = GI50 up to about 1.1 µM and inactive = higher.

Columns and labels:
Test in all cases: NCI tumour cell line growth inhibition, 48 h
[1] = test system: ACHN
[2] = test system: HOP-92
[3] = test system: KM12
[4] = test system: LOX IMVI
[5] = test system: NCI-H23
[6] = test system: NCI-H460
[7] = test system: NCI/ADR-RES
[8] = test system: OVCAR-4
[9] = test system: OVCAR-5
[10] = test system: RPMI-8226
[11] = test system: RXF 393
[12] = test system: SF-295
[13] = test system: SK-MEL-2
[14] = test system: SK-MEL-5
[15] = test system: SNB-75
[16] = test system: T47D
[17] = test system: CCRF-CEM
[18] = test system: HT-29
[19] = test system: OVCAR-8
[20] = test system: SR

Row | SMILES | GI50 [1] | GI50 [2] | GI50 [3] | GI50 [4] | GI50 [5] | GI50 [6] | GI50 [7] | GI50 [8] | GI50 [9] | GI50 [10] | GI50 [11] | GI50 [12] | GI50 [13] | GI50 [14] | GI50 [15] | GI50 [16] | GI50 [17] | GI50 [18] | GI50 [19] | GI50 [20]
1 | CN(C)S(=O)(=O)n1ccnc1 | > 100 µM (inactive) | > 100 µM (inactive) | > 100 µM (inactive) | > 100 µM (inactive) | > 100 µM (inactive) | > 100 µM (inactive) | > 100 µM (inactive) | > 100 µM (inactive) | > 100 µM (inactive) | > 100 µM (inactive) | > 100 µM (inactive) | > 100 µM (inactive) | > 100 µM (inactive) | > 100 µM (inactive) | > 100 µM (inactive) | > 100 µM (inactive) |  |  |  | 
2 | CC1C(=O)C(C)C(c2ccco2)N(N=O)C1c1ccco1 (stereo unspecified) |  | > 68.4 µM (inactive) | > 100 µM (inactive) | > 100 µM (inactive) | > 100 µM (inactive) | > 100 µM (inactive) | > 100 µM (inactive) | > 100 µM (inactive) | > 100 µM (inactive) | > 100 µM (inactive) | > 100 µM (inactive) | > 100 µM (inactive) | > 100 µM (inactive) | > 100 µM (inactive) | > 82.8 µM (inactive) |  | > 100 µM (inactive) | > 100 µM (inactive) | > 100 µM (inactive) | 
3 | CC1=C2C(O)C(C(C)C(=O)N(C)C)CCC2(C)C=CC1=O (stereo unspecified) |  | > 100 µM (inactive) | > 100 µM (inactive) | > 100 µM (inactive) | > 100 µM (inactive) | > 100 µM (inactive) | > 100 µM (inactive) | > 100 µM (inactive) | > 100 µM (inactive) | > 100 µM (inactive) | > 100 µM (inactive) | > 100 µM (inactive) | > 100 µM (inactive) | > 100 µM (inactive) | > 100 µM (inactive) |  | > 100 µM (inactive) | > 100 µM (inactive) | > 100 µM (inactive) | 
4 | CCc1c(-c2ccc(OC)cc2)oc(OC)c(C)c1=O | 42.3 µM (inactive) | 97.1 µM (inactive) | > 100 µM (inactive) | 63.7 µM (inactive) | > 100 µM (inactive) | 40.5 µM (inactive) | 49 µM (inactive) | 85.9 µM (inactive) | > 100 µM (inactive) |  | > 100 µM (inactive) | > 100 µM (inactive) | > 100 µM (inactive) | 32.2 µM (inactive) | 33.2 µM (inactive) | 45 µM (inactive) | 41 µM (inactive) | 91.4 µM (inactive) | > 100 µM (inactive) | 
5 | N#CC(C#N)=Cc1ccc(C=C2SC3=C(SCCS3)S2)s1 | > 100 µM (inactive) | 17.6 µM (inactive) | 2.25 µM (inactive) |  | 6.68 µM (inactive) | 7.59 µM (inactive) | 1.63 µM (inactive) | 9.68 µM (inactive) | 3.72 µM (inactive) | 0.881 µM (active) |  | 24.4 µM (inactive) | > 100 µM (inactive) | 3.33 µM (inactive) | 16.7 µM (inactive) | > 100 µM (inactive) | 2.48 µM (inactive) | 3.39 µM (inactive) | 29.9 µM (inactive) | 
6 | CC(NC(=O)OC(C)(C)C)C(=O)NC1CCCC1 (stereo unspecified) | > 100 µM (inactive) | > 100 µM (inactive) | > 100 µM (inactive) | > 100 µM (inactive) | > 100 µM (inactive) | > 100 µM (inactive) | > 100 µM (inactive) | > 100 µM (inactive) | > 100 µM (inactive) | > 100 µM (inactive) | > 100 µM (inactive) | > 100 µM (inactive) |  | > 100 µM (inactive) | > 100 µM (inactive) |  | > 100 µM (inactive) | > 100 µM (inactive) | > 100 µM (inactive) | > 100 µM (inactive)
7 | O=[N+]([O-])C(=C(Nc1ccccc1)Nc1ccccc1)C(Cl)=C(Cl)Cl | 15.9 µM (inactive) | 15.8 µM (inactive) | 24.9 µM (inactive) | 8.77 µM (inactive) | 13.6 µM (inactive) | 16.1 µM (inactive) | 22.6 µM (inactive) | 12.2 µM (inactive) | 23.1 µM (inactive) | 32.8 µM (inactive) | 15.8 µM (inactive) | 17.8 µM (inactive) | 13.1 µM (inactive) | 13.8 µM (inactive) | 19.1 µM (inactive) | 19.3 µM (inactive) | 8.04 µM (inactive) | 16.4 µM (inactive) | 22.9 µM (inactive) | 
8 | COc1cccc(CN(C(=O)/C=C\Sc2ccccc2)C(C)(C)C)c1 | > 100 µM (inactive) | 2.61 µM (inactive) | > 100 µM (inactive) | 32.5 µM (inactive) | > 100 µM (inactive) |  | 58.9 µM (inactive) | 96.8 µM (inactive) | > 100 µM (inactive) |  |  | > 100 µM (inactive) | 54.8 µM (inactive) | 49 µM (inactive) |  | 17.6 µM (inactive) | 0.435 µM (active) | 31.1 µM (inactive) | > 100 µM (inactive) | 
9 | CN(C)c1ccc(/N=N/c2ccncc2)cc1 | > 100 µM (inactive) | 17.6 µM (inactive) | > 100 µM (inactive) | 93.1 µM (inactive) | > 100 µM (inactive) | > 100 µM (inactive) | 31.2 µM (inactive) | 48.1 µM (inactive) | > 100 µM (inactive) | 47.1 µM (inactive) | > 100 µM (inactive) | > 100 µM (inactive) |  | 67 µM (inactive) |  | > 100 µM (inactive) | > 100 µM (inactive) | 95.1 µM (inactive) | > 100 µM (inactive) | 
10 | CCCCNCCCNCCCNC(=O)c1csc(-c2csc(CCNC(=O)C(NC(=O)C(C)C(O)C(C)NC(=O)C(NC(=O)c3nc(C(CC(N)=O)NCC(N)C(N)=O)nc(N)c3C)C(OC3OC(CO)C(O)C(O)C3OC3OC(CO)C(O)C(OC(N)=O)C3O)c3c[nH]cn3)C(C)O)n2)n1 (stereo unspecified) | < 0.0187 µM (active) | 0.0798 µM (active) | 8.67 µM (inactive) | 0.105 µM (active) | 0.083 µM (active) | 0.0264 µM (active) |  | 5.75 µM (inactive) | 2.3 µM (inactive) | > 50 µM (inactive) |  | 0.0681 µM (active) | 2.25 µM (inactive) | 0.247 µM (active) | 0.0589 µM (active) | 12.9 µM (inactive) | 15.6 µM (inactive) | 25.1 µM (inactive) | 1.92 µM (inactive) | 6.44 µM (inactive)
11 | Fc1nc(Sc2ncnc3nc[nH]c23)nc(-c2c3ccccc3c3sc4ccccc4n23)n1 | > 100 µM (inactive) | > 100 µM (inactive) | > 100 µM (inactive) | 80 µM (inactive) | > 100 µM (inactive) | > 100 µM (inactive) | > 100 µM (inactive) | > 100 µM (inactive) | > 100 µM (inactive) | > 100 µM (inactive) | > 100 µM (inactive) | > 100 µM (inactive) | > 100 µM (inactive) | > 100 µM (inactive) | > 100 µM (inactive) | > 100 µM (inactive) | 40.7 µM (inactive) | > 100 µM (inactive) | > 100 µM (inactive) | 
12 | Oc1cc(-c2ccc3ccccc3c2)nc2ncc(Cl)cc12 | 4.9 µM (inactive) | 5.31 µM (inactive) | 3.79 µM (inactive) | 5.33 µM (inactive) | 7.14 µM (inactive) |  | 6.32 µM (inactive) | 6.43 µM (inactive) | 64.9 µM (inactive) | 2.99 µM (inactive) |  |  | 7.64 µM (inactive) |  | 1.98 µM (inactive) | 18.8 µM (inactive) | 3.48 µM (inactive) | 5.66 µM (inactive) | 6.15 µM (inactive) | 
